According to patent US20100003711A1, “Methods to identify therapeutic agents” (THE SCRIPPS RESEARCH INSTITUTE, priority 2005, published 2010):

Tests used:
[1] = Decrease of extractable 5a in stored plasma; format: in vitro ADME; conditions: stored human plasma, preliminary investigations
Procedure: Plasma samples were obtained from patients (n=8) who were scheduled to undergo carotid endarterectomy within 24 h. […] Control plasma samples were obtained from random patients (n=15) attending a general medical clinic and were analyzed 7 days after collection. In a typical procedure, plasma in EDTA (1 ml) was washed with dichloromethane (DCM, 3×1 mL). The combined organic fractions were evaporated in vacuo. The residue was dissolved in methanol (0.9 mL) and a solution of 2,4-dinitrophenyl hydrazine (100 μL, 0.01 M, Lancaster) and 1N HCl in ethanol was added. Nitrogen was bubbled through the solution for 5 min and then the solution was stirred for 2 h. The resultant solution was filtered through a 0.22 μm filter and the filtrate was analyzed by the HPLC assay vide supra.

[2] = tested on: Class A scavenger receptor (SR-A); assay: Scavenger receptor expression by flow cytometry, SR-A; format: cell-based, murine; conditions: cultured macrophages, compound in the absence of LDL
Procedure: Cell surface CD36 and SR-A were measured by flow cytometry using CD36 (BD Biosciences Pharmingen, San Diego, Calif.) and CD204 (Serotec, Oxford, UK) specific monoclonal antibodies. See Liao et al. (2000) Arterioscler. Thromb. Vasc. Biol. 20: 1968-75; Hu et al. (1996) Blood 87: 2020-28. Murine macrophage J774A.1 cells were serum-starved overnight in media with 0.5% BSA. Cells (1×10^6) treated with cholesterol ozonation products or cholesterol ozonation product complexed with LDL for specified times were then washed twice with PBS. […] Expression of either CD36 or SR-A was determined with CD36 (BD Biosciences Pharmingen, San Diego, Calif.) and CD204 (Serotec, Oxford, U.K.) specific monoclonal antibodies, respectively. After washing off the primary antibody, secondary antibodies were added, cells were washed again, then analyzed on a FACS calibur 2 (Becton Dickinson, Sparks, Md.) flow cytometer and analyzed by CellQuant software. Results were expressed as mean fluorescence intensity±standard error of the mean (SEM) of at least duplicate determinations. Significance was determined using a student two-tail t test, with (*) indicating p<0.05, and (**) indicating p<0.01 versus the control.

J774.1 macrophages = assay: Lipid-loading assay (foam cell formation); format: cell-based, murine; conditions: LDL 100 μg/mL with 4a or 5a (20 μM), 72 h, unactivated J774.1 macrophages
Procedure: Lipid-loading assay (foam cell formation). J774.1 macrophages were incubated in ATCC-recommended media containing 10% fetal bovine serum under a controlled atmosphere of 5 or 7% CO2 at 37° C., in 8-well chamber slides. […] At termination, cells were washed twice with PBS (pH 7.4). The cells were then fixed with 6% (v/v) paraformaldehyde in PBS for 30 minutes, rinsed with propylene glycol for 2 minutes and lipids were stained with 5 mg/ml Oil Red 0 for 8 minutes. The cells were counterstained with Harris' hematoxylin for 45 seconds, and background staining was removed with 6% paraformaldehyde followed by washing once in PBS and once in tap water. Cover slips were mounted onto the glass slides using glycerol and the slide preparations were examined by light microscopy. The number of lipid-laden cells was scored out of a total of at least 100 cells counted in a single field in each slide, and expressed as a percentage of total cells. Photographs were taken at 100× magnification.

neuronal cell lines = assay: Cytotoxicity towards neuronal cell lines (similar procedures); format: cell-based
ICAM-1 (CD54) = assay: Endothelial adhesion molecule expression by ELISA, ICAM-1; format: cell-based, human; conditions: HAAE-1, not complexed with LDL
Procedure: (§1) Endothelial cell surface adhesion molecule expression was measured by ELISA, using anti-human CD54 (ICAM-1), CD106 (VCAM-1) and CD62E (E-Selectin) antibodies (Leinco Technologies, Inc., St. Louis, Mo.). The ELISA method was modified from previously described procedures.
(§2) Cells were then incubated with antibodies to VCAM-1, E-selectin, or ICAM-1 diluted 1:400 in PBS containing 5% FCS at 37° C. for 30 min. Wells were washed two times with PBS, then incubated with horseradish peroxidase (HRP)-conjugated goat anti-mouse IgG (Southern Biotechnology Associates, Birmingham, Ala., USA) in PBS/5% FCS at 37° C. for 30 min. The wells were washed four times with PBS, then incubated with H2O2/3,3′,5,5′-tetramethyl-benzidine peroxidase substrate (Pierce Chemical, Rockford, Ill., USA) for 30 min in the dark. The reaction was stopped by adding 25 μl of 8 N H2SO4, and the plates read on a microplate reader, blanking on wells stained with only secondary antibody. Each assay was performed in triplicate and the data are reported as the mean±SEM as a percentage of the expression level of the vehicle. To study the effect of cholesterol ozonation product 5a concentration (5-50 μM) on E-selectin expression, the assay was performed in an identical fashion as described above, with each point being the mean±SEM of at least duplicate measurements.

CD36 = assay: Scavenger receptor expression by flow cytometry, CD36; format: cell-based, murine
Procedure: Cell surface CD36 and SR-A were measured by flow cytometry using CD36 (BD Biosciences Pharmingen, San Diego, Calif.) and CD204 (Serotec, Oxford, UK) specific monoclonal antibodies. See Liao et al. (2000) Arterioscler. Thromb. Vasc. Biol. 20: 1968-75; Hu et al. (1996) Blood 87: 2020-28. Murine macrophage J774A.1 cells were serum-starved overnight in media with 0.5% BSA. Cells (1×10^6) treated with cholesterol ozonation products or cholesterol ozonation product complexed with LDL for specified times were then washed twice with PBS. After harvesting the cells by scraping, they were fixed with 6% paraformaldehyde for 20 min; Cells were then resuspended in PBS containing 2% heat-inactivated FCS, 0.05% NaN3 and appropriate primary antibody, antibody conjugate or isotype control (1:100 dilution) and incubated on ice for 30 min. Expression of either CD36 or SR-A was determined with CD36 (BD Biosciences Pharmingen, San Diego, Calif.) and CD204 (Serotec, Oxford, U.K.) specific monoclonal antibodies, respectively. After washing off the primary antibody, secondary antibodies were added, cells were washed again, then analyzed on a FACS calibur 2 (Becton Dickinson, Sparks, Md.) flow cytometer and analyzed by CellQuant software. Results were expressed as mean fluorescence intensity±standard error of the mean (SEM) of at least duplicate determinations. Significance was determined using a student two-tail t test, with (*) indicating p<0.05, and (**) indicating p<0.01 versus the control.

VCAM-1 (CD106) = assay: Endothelial adhesion molecule expression by ELISA, VCAM-1; format: cell-based, human; conditions: HAAE-1, not complexed with LDL
Procedure: as §1, §2

E-selectin (CD62E) = assay: Endothelial adhesion molecule expression by ELISA, E-selectin; format: cell-based, human; conditions: HAAE-1, not complexed with LDL
Procedure: as §1, §2

U-937 monocytes cells = assay: Monocyte adhesion to endothelial cell monolayers by fluorescence spectroscopy; format: cell-based; conditions: alone or in complex with LDL
[3] = tested on: murine macrophage J774A.1; assay: Modified Boyden chamber migration (chemotaxis) assay; format: cell-based
Procedure: Chemotaxis and invasion assays were performed using a modified Boyden chamber migration assay. Zwirner et al. (1998) Eur. J. Immunol. 28: 1570-77; Wilkinson (1988) Methods Enzymol. 162: 38-50. Assays were set up on MultiScreen-MIC plates (Millipore, Billerica, Mass., USA) with polyvinylpyrrolidone-free polycarbonate membranes (5 μm pore size). Cells (murine macrophage J774A.1) were washed and resuspended in serum-free DMEM containing 0.2% BSA at 1×10^6 cells/ml. Fifty microliters of cells were added to the upper wells and 150 μl of chemoattractant in DMEM/0.2% BSA were added to the lower wells of the microchamber. Incubation time was for 4 h at 37° C. in an 8% CO2 atmosphere. After swiping cells off the upper side of the membrane, cells on the lower side were visualized by either staining and phase contrast microscopy, or fluorescence. Cells that had adhered to the membrane were stained using a DiffQuik staining kit (Dade Behring, Newark, Del.). Each experiment was performed in triplicate and the numbers of migrating cells were counted in five fields at ×200. Cells harvested with PBS-EDTA for fluorescent labeling were washed two times with PBS, then resuspended in serum-free medium containing calcein AM (5 μM). Cells were incubated for 30 min (37° C., 5% CO2) with gentle intermittent mixing. Calcein-labeled cells were washed twice, and calcein fluorescence ([…]) was measured using a SPECTRAmax™ GEMINI dual-scanning microplate spectrofluorometer. Fluorescence measurements were compared to a standard curve, generated by dilution of cells in PBS/BSA in 100 μl, dispensed into 96-well plates. Fluorescence was quantified as described above.

THP-1 monocytes = assay: Monocyte morphology changes (differentiation into macrophages); format: cell-based, human; conditions: 12.5 or 25 μM, up to 7 days
Procedure: THP-1 monocytes in suspension were plated in 8-well chambered slides. […] Media containing appropriate treatment compounds was replaced after 4 days. After 4 days treatment, morphologic changes of the adherent cells were assessed by phase-contrast microscopy and photographed using an Olympus Microfire digital camera.

LDL / apoB-100 = LDL / apoB-100 (Homo sapiens, UniProt P04114); assay: Circular dichroism of LDL secondary structure; conditions: LDL 100 μg/ml with 10 μM compound, PBS pH 7.4, 37° C., up to 48 h; normal LDL ~40±2%
Chain of LDL / apoB-100 (P04114 28-4563): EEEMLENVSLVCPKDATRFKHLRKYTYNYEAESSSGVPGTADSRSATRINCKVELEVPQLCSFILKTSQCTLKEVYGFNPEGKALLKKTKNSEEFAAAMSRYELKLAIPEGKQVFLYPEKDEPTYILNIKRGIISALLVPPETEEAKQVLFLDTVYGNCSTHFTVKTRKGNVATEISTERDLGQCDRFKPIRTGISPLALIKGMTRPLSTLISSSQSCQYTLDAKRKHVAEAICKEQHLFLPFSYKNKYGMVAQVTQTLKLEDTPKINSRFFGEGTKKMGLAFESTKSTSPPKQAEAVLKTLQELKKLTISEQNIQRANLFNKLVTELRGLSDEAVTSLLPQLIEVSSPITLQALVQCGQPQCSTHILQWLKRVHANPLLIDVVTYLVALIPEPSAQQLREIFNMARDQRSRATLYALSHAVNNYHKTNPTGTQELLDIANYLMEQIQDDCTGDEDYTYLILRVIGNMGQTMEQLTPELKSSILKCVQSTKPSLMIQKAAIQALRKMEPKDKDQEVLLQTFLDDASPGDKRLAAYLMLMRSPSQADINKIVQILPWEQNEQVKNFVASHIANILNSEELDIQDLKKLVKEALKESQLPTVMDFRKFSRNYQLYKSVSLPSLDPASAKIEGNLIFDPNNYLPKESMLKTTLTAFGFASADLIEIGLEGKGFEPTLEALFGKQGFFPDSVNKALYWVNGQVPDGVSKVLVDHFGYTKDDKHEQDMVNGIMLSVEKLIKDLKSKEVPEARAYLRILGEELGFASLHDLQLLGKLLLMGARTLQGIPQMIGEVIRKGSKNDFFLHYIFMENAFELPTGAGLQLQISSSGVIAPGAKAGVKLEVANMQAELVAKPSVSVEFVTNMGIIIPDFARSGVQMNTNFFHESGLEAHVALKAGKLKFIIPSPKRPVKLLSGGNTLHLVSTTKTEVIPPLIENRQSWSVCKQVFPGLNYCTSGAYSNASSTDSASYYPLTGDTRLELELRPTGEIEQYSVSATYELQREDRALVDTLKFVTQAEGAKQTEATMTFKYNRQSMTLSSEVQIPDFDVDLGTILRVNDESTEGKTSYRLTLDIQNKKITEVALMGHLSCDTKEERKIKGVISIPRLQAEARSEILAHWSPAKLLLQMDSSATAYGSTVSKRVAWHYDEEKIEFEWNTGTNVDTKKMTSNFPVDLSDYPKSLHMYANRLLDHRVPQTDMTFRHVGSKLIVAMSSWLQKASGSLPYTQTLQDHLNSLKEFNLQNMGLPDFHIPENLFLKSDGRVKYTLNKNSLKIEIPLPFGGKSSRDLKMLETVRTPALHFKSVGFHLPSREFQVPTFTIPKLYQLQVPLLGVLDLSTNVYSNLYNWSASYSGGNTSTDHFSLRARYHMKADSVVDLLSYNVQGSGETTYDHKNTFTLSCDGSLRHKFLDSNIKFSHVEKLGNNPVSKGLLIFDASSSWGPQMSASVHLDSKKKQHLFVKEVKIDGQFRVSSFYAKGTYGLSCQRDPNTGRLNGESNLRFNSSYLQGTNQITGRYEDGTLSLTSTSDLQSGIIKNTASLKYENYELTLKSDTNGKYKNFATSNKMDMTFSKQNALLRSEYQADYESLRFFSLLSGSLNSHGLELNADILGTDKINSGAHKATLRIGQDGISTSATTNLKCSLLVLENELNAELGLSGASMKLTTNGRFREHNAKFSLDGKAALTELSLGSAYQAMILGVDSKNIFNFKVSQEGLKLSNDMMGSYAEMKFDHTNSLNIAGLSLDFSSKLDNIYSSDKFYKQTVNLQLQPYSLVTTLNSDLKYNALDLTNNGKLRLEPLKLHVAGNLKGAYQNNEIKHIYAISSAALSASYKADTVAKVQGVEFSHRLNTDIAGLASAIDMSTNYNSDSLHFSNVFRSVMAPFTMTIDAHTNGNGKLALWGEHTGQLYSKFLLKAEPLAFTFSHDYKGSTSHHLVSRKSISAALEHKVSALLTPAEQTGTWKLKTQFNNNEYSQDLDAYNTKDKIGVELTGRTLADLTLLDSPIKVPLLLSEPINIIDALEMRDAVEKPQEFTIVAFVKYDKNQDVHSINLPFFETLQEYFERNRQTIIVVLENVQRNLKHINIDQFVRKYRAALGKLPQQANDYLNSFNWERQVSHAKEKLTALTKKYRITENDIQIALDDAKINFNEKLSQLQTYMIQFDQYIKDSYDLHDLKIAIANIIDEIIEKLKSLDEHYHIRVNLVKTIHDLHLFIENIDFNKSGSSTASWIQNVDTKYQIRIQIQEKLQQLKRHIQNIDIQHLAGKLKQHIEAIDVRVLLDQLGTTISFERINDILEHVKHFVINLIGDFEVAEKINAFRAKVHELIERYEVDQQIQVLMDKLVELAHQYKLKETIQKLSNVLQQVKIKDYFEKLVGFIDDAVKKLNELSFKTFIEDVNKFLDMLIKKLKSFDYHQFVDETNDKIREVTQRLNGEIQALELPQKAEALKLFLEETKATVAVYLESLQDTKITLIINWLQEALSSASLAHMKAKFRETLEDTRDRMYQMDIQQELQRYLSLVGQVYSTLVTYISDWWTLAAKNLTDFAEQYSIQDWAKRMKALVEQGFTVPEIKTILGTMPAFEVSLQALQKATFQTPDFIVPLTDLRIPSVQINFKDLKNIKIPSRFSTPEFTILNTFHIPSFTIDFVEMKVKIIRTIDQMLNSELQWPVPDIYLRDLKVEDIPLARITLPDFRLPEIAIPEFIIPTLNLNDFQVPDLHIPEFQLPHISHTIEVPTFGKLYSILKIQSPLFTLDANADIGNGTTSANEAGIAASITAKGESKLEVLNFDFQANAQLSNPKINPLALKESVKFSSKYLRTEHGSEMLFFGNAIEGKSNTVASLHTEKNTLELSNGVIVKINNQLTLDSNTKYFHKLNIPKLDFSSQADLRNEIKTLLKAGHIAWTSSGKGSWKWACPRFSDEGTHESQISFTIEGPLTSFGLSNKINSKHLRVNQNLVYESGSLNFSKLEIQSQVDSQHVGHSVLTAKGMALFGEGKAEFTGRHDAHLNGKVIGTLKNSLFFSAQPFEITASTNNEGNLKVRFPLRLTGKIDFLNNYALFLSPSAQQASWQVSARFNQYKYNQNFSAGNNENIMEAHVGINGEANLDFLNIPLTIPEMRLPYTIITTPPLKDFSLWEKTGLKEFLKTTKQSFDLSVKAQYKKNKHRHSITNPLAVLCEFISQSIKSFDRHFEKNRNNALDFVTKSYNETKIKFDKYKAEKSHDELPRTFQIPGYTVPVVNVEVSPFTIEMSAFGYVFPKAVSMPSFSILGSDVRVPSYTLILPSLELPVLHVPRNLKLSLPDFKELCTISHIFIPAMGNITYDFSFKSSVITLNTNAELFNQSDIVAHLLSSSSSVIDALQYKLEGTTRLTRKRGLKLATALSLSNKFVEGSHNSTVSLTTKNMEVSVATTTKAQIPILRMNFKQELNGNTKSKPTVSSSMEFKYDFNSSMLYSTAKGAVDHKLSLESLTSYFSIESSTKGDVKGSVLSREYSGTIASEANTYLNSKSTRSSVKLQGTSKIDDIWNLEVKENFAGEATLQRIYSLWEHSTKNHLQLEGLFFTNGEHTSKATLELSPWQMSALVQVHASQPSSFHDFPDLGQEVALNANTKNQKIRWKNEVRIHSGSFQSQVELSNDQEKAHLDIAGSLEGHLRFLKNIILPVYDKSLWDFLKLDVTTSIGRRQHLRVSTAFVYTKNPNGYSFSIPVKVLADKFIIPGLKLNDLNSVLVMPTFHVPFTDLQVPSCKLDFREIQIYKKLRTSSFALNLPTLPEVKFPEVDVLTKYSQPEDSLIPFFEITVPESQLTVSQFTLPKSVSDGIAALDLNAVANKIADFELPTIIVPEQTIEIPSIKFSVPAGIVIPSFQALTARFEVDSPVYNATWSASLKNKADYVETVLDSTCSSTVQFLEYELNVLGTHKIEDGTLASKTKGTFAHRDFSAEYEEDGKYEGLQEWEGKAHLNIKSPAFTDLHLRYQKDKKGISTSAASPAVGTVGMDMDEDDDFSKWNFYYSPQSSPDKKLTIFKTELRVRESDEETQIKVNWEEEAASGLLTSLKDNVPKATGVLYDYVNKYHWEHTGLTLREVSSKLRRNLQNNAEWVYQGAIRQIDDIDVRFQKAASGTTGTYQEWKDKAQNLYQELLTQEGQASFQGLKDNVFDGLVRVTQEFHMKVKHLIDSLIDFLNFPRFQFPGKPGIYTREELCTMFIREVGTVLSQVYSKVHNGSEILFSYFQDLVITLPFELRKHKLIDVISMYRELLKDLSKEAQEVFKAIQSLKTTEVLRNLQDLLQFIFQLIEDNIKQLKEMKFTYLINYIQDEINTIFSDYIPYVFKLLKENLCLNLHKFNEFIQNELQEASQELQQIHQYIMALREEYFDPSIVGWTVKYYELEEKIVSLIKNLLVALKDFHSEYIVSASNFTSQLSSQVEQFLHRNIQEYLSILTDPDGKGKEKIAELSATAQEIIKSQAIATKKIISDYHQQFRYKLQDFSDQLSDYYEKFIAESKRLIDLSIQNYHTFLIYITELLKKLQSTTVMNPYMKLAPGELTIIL
Procedure: Spectra were recorded in the peptidic range (200-260 nm). To increase the signal-to-noise ratio, multiple spectra (three) were averaged for each measurement. The deconvolution of the molar elipticity spectra for each measurement was performed using the CDPro suite of software (by Narasimha Sreerama from Colorado State University) on a Dell PC.

[4] = tested on: T-lymphocyte cell line (Jurkat E6.1); assay: LDH release cytotoxicity assay, Jurkat; format: cell-based; conditions: concentration range of FIG. 6B (0-100 μM)
Procedure: (§3) Cytotoxicity assays. WI-L2 human B-lymphocyte line, HAAE-1 human abdominal aortic endothelial line, MH-S murine alveolar macrophage line, and J774A.1 murine tissue macrophage line were obtained from the ATCC. Human aortic endothelial cells (HAEC) and human vascular smooth muscle cells (VSMS) were obtained from Cambrex Bio Science. Jurkat E6-1T-lymphocytes were kindly provided by Dr. J. Kaye (The Scripps Research Institute). Cells were cultured in ATCC-recommended media with 10% fetal calf serum. Cells were incubated in a controlled atmosphere at 37° C., with 5 or 7% CO2. For lactate dehydrogenase (LDH) release assays, adherent cells were harvested either by addition of 0.05% trypsin/EDTA or by scraping. The cells obtained were seeded onto 96-well microtiter plates (25,000 cells/well) and allowed to recover for 24-48 h. […] Cytotoxicity was then determined by measuring lactate dehydrogenase (LDH) release from cells in culture. […] 100% Cytotoxicity was defined as the maximum amount of LDH released by dead cells as shown by trypan blue exclusion, or the highest amount of LDH detected upon lysis of cells by 0.9% Triton X-100. The IC50 values were determined by comparison of the raw duplicate data for concentration versus cytotoxicity (%) to non-linear regression analysis (Hill plot) using Graphpad v3.0 software for Macintosh. […]

[5] = tested on: WI-L2 human B-lymphocyte line; assay: LDH release cytotoxicity assay, WI-L2; format: cell-based; conditions: B-cell (WI-L2) cell line, concentration range of FIG. 6A (0-100 μM)
Procedure: as §3

Compound | decrease of the amount of 5a that can be extracted from plasma [1] | SR-A expression [2] | lipid-loading of macrophages / foam cell formation (J774.1 macrophages) | cytotoxicity towards neuronal cell lines (neuronal cell lines) | integrin expression (ICAM-1) (ICAM-1 (CD54)) | CD36 expression (CD36; J774A.1, 25 μM compound complexed with LDL (100 μg/ml protein), 6 h) | CD36 expression (CD36; cultured macrophages, compound in the absence of LDL) | integrin expression (VCAM-1) (VCAM-1 (CD106)) | selectin (E-selectin) expression (E-selectin (CD62E)) | adhesion of U-937 monocytes to endothelial cell monolayers, above that of LDL alone (U-937 monocytes cells) | recruitment (migration) of macrophages ([3]; 0-25 μM, 4 h, P<0.001) | migration of macrophages ([3]; compound co-incubated with BSA) | migration of macrophages ([3]; compound complexed with native LDL (100 μg/ml)) | THP-1 monocyte differentiation into macrophages (adherence, morphology) (THP-1 monocytes) | a helical structure of LDL (LDL / apoB-100) [%] | cytotoxicity [4] | cytotoxicity [5]
CC(C)CCC[C@@H](C)[C@H]1CCC2C3C(CC[C@@]21C)[C@@]1(C)CC[C@H](O)C[C@@]1(O)[C@@H]3C=O (stereo partly drawn) [5a, 3β-Hydroxy-5β-hydroxy-B-norcholestane-6βcarboxaldehyde] | about 5 % per day | did not increase expression of either receptor | began lipid-loading and foam cells began to appear | cytotoxic | no effects | little or no effect | did not increase expression of either receptor | no effects | no effects | neither ozonolysis product 4a nor 5a, alone or in complex with LDL, nor CuOx-LDL significantly increased adhesion | dose-dependent recruitment of macrophages | macrophage migration still occurs | no significant migration | displayed hypertrophy, developed cytoplasmic vacuoles, and formed extended processes, all characteristic of mature macrophages | ~20±2 |  | 
CC(C)CCC[C@@H](C)[C@H]1CC[C@H]2[C@@H]3CC=C4C[C@@H](O)CC[C@]4(C)[C@H]3CC[C@]12C [compound 3, cholesterol, reference compound] |  |  |  |  | no effects |  |  | no effects | no effects |  |  |  |  | neither became adherent nor developed the aforementioned morphological changes |  | No cytotoxicity | No cytotoxicity
